*1 amine or outer side, *2 acyl side, *3 side chain or, on linkers, in order; H or OH if unused. Where a SMILES comes first, the peptide text is derived from it. Bridges are numbered along the chain shown (N, C = ends). [ ]: non-standard residue; d: D form. X3 = NC(=O)Cn1cc(C[C@H](N[*:1])C(=O)[*:2])c2ccccc21; X5 = O=C([C@H](Cc1cn(CCO)c2ccccc12)N[*:1])[*:2]; NMePhe(3-Cl) = CN[C@@H](Cc1cccc(Cl)c1)C(=O)O; NMeW = CN[C@@H](Cc1c[nH]c2ccccc12)C(=O)O; Lys(N3) = [N-]=[N+]=NCCCC[C@H](N)C(=O)O; NMeY = CN[C@@H](Cc1ccc(O)cc1)C(=O)O; NMeF = CN[C@@H](Cc1ccccc1)C(=O)O; PEG4 = NCCOCCOCCOCCOCCC(=O)O; Aib = CC(C)(N)C(=O)O
Target: transferrin receptor (hTfR) (Homo sapiens, UniProt P02786)
Sequence (P02786 whole entry): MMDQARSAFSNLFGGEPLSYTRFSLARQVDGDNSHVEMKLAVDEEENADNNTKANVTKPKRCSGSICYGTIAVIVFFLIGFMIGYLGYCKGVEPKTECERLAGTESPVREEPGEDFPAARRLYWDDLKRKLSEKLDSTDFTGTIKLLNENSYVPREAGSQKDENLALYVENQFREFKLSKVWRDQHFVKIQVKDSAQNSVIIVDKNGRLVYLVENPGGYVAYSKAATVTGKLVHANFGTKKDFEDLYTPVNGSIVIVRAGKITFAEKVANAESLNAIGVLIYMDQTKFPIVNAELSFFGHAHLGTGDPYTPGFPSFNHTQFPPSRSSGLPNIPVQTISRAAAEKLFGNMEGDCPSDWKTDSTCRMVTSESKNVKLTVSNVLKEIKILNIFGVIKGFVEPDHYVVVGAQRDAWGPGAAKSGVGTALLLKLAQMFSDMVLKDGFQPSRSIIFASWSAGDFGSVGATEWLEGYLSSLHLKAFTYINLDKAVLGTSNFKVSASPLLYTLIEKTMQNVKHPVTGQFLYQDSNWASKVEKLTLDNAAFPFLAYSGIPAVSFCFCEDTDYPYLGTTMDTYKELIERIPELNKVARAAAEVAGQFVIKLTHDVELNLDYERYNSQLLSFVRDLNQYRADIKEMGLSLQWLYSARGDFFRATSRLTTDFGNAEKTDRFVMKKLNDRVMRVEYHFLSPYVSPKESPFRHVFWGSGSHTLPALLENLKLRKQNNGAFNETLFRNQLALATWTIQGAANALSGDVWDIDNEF
Assay: Intermolecular interaction evaluation test between transferrin receptor (hTfR) and peptide by surface plasmon resonance (SPR)
Format: binding
Conditions: surface plasmon resonance, peptide vs hTfR; read-out: KD value, hTfR binding by SPR (class symbol)
In short: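 hTfR captured on Ni-NTA chip then amine-coupled; peptides run single-cycle kinetics at 5–100 nM in 10 mM HEPES pH 8.0, 150 mM NaCl, 0.05% Tween 20, 0.1% BSA, 1.0% DMSO. KD from least-squares curve fitting of sensorgrams.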

CC[C@H](C)[C@@H]1NC(=O)[C@H](Cc2ccc(O)cc2)NC(=O)[C@H](Cc2ccc(O)cc2)NC(=O)[C@H](CC(N)=O)NC(=O)[C@H](Cc2c[nH]c3ccccc23)NC(=O)[C@H](C(C)C)NC(=O)[C@H](Cc2ccccc2)N(C)C(=O)[C@H](C(C)C)NC(=O)[C@H](C)NC(=O)CSC[C@@H](C(N)=O)NC(=O)[C@H](Cc2ccc(O)cc2)N(C)C(=O)[C@H](Cc2ccc(O)cc2)NC(=O)[C@H](CCCNC(=N)N)NC(=O)[C@H](CCCCN)NC(=O)[C@H]([C@@H](C)CC)NC1=O [compound 293]
Kd: 1 to 100 nM

CC[C@H](C)[C@@H]1NC(=O)[C@H](Cc2ccc(O)cc2)NC(=O)[C@H](Cc2ccc(O)cc2)NC(=O)[C@H](CC(N)=O)NC(=O)[C@H](Cc2c[nH]c3ccccc23)NC(=O)[C@H](C(C)C)NC(=O)[C@H](Cc2ccccc2)N(C)C(=O)[C@H](C(C)C)NC(=O)[C@H](C)NC(=O)CSC[C@@H](C(N)=O)NC(=O)[C@H](Cc2ccc(O)cc2)N(C)C(=O)[C@H](Cc2ccc(O)cc2)NC(=O)[C@H](CCCNC(=N)N)NC(=O)[C@H](CCCNC(=N)N)NC(=O)[C@H]([C@@H](C)CC)NC1=O [compound 296]
Kd: 1 to 100 nM

CC[C@H](C)[C@@H]1NC(=O)[C@H](Cc2ccc(O)cc2)NC(=O)[C@H](Cc2ccc(O)cc2)NC(=O)[C@H](CC(N)=O)NC(=O)[C@H](Cc2c[nH]c3ccccc23)NC(=O)[C@H](C(C)C)NC(=O)[C@H](Cc2ccccc2)N(C)C(=O)[C@H](C(C)C)NC(=O)[C@H](C)NC(=O)CSC[C@@H](C(=O)NCC(=O)N[C@@H](CCCCN=[N+]=[N-])C(N)=O)NC(=O)[C@H](Cc2ccc(O)cc2)N(C)C(=O)[C@H](Cc2ccc(O)cc2)NC(=O)[C@H](CCCNC(=N)N)NC(=O)[C@H](CCCNC(=N)N)NC(=O)[C@H]([C@@H](C)CC)NC1=O [compound 297]
Kd: 1 to 100 nM

CC[C@H](C)[C@@H]1NC(=O)[C@H](Cc2ccc(O)cc2)NC(=O)[C@H](Cc2ccc(O)cc2)NC(=O)[C@H](CC(N)=O)NC(=O)[C@H](Cc2c[nH]c3ccccc23)NC(=O)[C@H](C(C)C)NC(=O)[C@H](Cc2ccccc2)N(C)C(=O)[C@H](C(C)C)NC(=O)[C@H](C)NC(=O)CSC[C@@H](C(=O)N(C)CC(=O)N(C)CC(=O)N(C)CC(N)=O)NC(=O)[C@H](Cc2ccc(O)cc2)N(C)C(=O)[C@H](Cc2ccc(O)cc2)NC(=O)[C@H](CCCNC(=N)N)NC(=O)[C@H](CCCNC(=N)N)NC(=O)[C@H]([C@@H](C)CC)NC1=O [compound 298]
Kd: 1 to 100 nM

CC[C@H](C)[C@@H]1NC(=O)[C@H](Cc2ccc(O)cc2)NC(=O)[C@H](Cc2ccc(O)cc2)NC(=O)[C@H](CC(N)=O)NC(=O)[C@H](Cc2c[nH]c3ccccc23)N(C)C(=O)[C@H](C(C)C)NC(=O)[C@H](Cc2ccccc2)N(C)C(=O)[C@H](C(C)C)NC(=O)[C@H](C)NC(=O)CSC[C@@H](C(N)=O)NC(=O)[C@H](Cc2ccc(O)cc2)N(C)C(=O)[C@H](Cc2ccc(O)cc2)NC(=O)[C@H](CCCNC(=N)N)NC(=O)[C@H](CCCNC(=N)N)NC(=O)[C@H]([C@@H](C)CC)NC1=O [compound 299]
Kd: 1 to 100 nM

CC[C@H](C)[C@@H]1NC(=O)[C@H](Cc2ccc(O)cc2)NC(=O)[C@H](Cc2ccc(O)cc2)NC(=O)[C@H](CC(N)=O)NC(=O)[C@H](Cc2c[nH]c3ccccc23)N(C)C(=O)[C@H](C(C)C)NC(=O)[C@H](Cc2ccccc2)N(C)C(=O)[C@H](C(C)C)NC(=O)[C@H](C)NC(=O)CSC[C@@H](C(N)=O)NC(=O)[C@H](Cc2ccc(O)cc2)N(C)C(=O)[C@H](Cc2ccc(O)cc2)NC(=O)[C@H](CCCNC(=N)N)NC(=O)[C@H](CCCCN)NC(=O)[C@H]([C@@H](C)CC)NC1=O [compound 300]
Kd: 1 to 100 nM

CC[C@H](C)[C@@H]1NC(=O)[C@H](Cc2ccc(OC)cc2)NC(=O)[C@H](Cc2ccc(O)cc2)NC(=O)[C@H](CC(N)=O)NC(=O)[C@H](Cc2c[nH]c3ccccc23)N(C)C(=O)[C@H](C(C)C)NC(=O)[C@H](Cc2ccccc2)N(C)C(=O)[C@H](C(C)C)NC(=O)[C@H](C)NC(=O)CSC[C@@H](C(=O)NCCOCCOCCOCCOCCC(N)=O)NC(=O)[C@H](Cc2ccc(O)cc2)N(C)C(=O)[C@H](Cc2ccccc2)NC(=O)[C@@H](CCCNC(=N)N)NC(=O)C(C)(C)NC(=O)[C@H]([C@@H](C)CC)NC1=O [compound 301] ({CH2CO}-AV[NMeF]V[NMeW]NYY(Me)II[Aib][dR]F[NMeY]C[PEG4]-NH2; thioether N-15)
Kd: 1 to 100 nM

CC[C@H](C)[C@@H]1NC(=O)[C@H](Cc2ccc(O)cc2)NC(=O)[C@H](Cc2ccc(O)cc2)NC(=O)[C@H](CC(N)=O)NC(=O)[C@H](Cc2c[nH]c3ccccc23)N(C)C(=O)[C@H](C(C)C)NC(=O)[C@H](Cc2cc(Cl)cc(Cl)c2)N(C)C(=O)[C@H](C(C)C)NC(=O)[C@H](C)NC(=O)CSC[C@@H](C(N)=O)NC(=O)[C@H](Cc2ccc(O)cc2)N(C)C(=O)[C@H](Cc2ccccc2)NC(=O)[C@@H](CCCNC(=N)N)NC(=O)[C@H](CCCNC(=N)N)NC(=O)[C@H]([C@@H](C)CC)NC1=O [compound 302]
Kd: 1 to 100 nM

CC[C@H](C)[C@@H]1NC(=O)[C@H](Cc2ccc(OC)cc2)NC(=O)[C@H](Cc2ccc(O)cc2)NC(=O)[C@H](CC(N)=O)NC(=O)[C@H](Cc2cn(CC(=O)O)c3ccccc23)NC(=O)[C@H](C(C)C)NC(=O)[C@H](Cc2cccc(Cl)c2)N(C)C(=O)[C@H](C(C)C)NC(=O)[C@H](C)NC(=O)CSC[C@@H](C(N)=O)NC(=O)[C@H](Cc2ccc(O)cc2)N(C)C(=O)[C@H](Cc2ccccc2)NC(=O)[C@@H](CCCNC(=N)N)NC(=O)C(C)(C)NC(=O)[C@H]([C@@H](C)CC)NC1=O [compound 303]
Kd: 1 to 100 nM

CC[C@H](C)[C@@H]1NC(=O)[C@H](Cc2ccc(OC)cc2)NC(=O)[C@H](Cc2ccc(O)cc2)NC(=O)[C@H](CC(N)=O)NC(=O)[C@H](Cc2cn(CC(N)=O)c3ccccc23)NC(=O)[C@H](C(C)C)NC(=O)[C@H](Cc2cccc(Cl)c2)N(C)C(=O)[C@H](C(C)C)NC(=O)[C@H](C)NC(=O)CSC[C@@H](C(N)=O)NC(=O)[C@H](Cc2ccc(O)cc2)N(C)C(=O)[C@H](Cc2ccccc2)NC(=O)[C@@H](CCCNC(=N)N)NC(=O)C(C)(C)NC(=O)[C@H]([C@@H](C)CC)NC1=O [compound 304] ({CH2CO}-AV[NMePhe(3-Cl)]V[X3]NYY(Me)II[Aib][dR]F[NMeY]C-NH2; thioether N-15)
Kd: 100 to 1000 nM

CC[C@H](C)[C@@H]1NC(=O)[C@H](Cc2ccc(OC)cc2)NC(=O)[C@H](Cc2ccc(O)cc2)NC(=O)[C@H](CC(N)=O)NC(=O)[C@H](Cc2cn(CCO)c3ccccc23)NC(=O)[C@H](C(C)C)NC(=O)[C@H](Cc2cccc(Cl)c2)N(C)C(=O)[C@H](C(C)C)NC(=O)[C@H](C)NC(=O)CSC[C@@H](C(N)=O)NC(=O)[C@H](Cc2ccc(O)cc2)N(C)C(=O)[C@H](Cc2ccccc2)NC(=O)[C@@H](CCCNC(=N)N)NC(=O)C(C)(C)NC(=O)[C@H]([C@@H](C)CC)NC1=O [compound 305] ({CH2CO}-AV[NMePhe(3-Cl)]V[X5]NYY(Me)II[Aib][dR]F[NMeY]C-NH2; thioether N-15)
Kd: 100 to 1000 nM

CC[C@H](C)[C@@H]1NC(=O)[C@H](Cc2ccc(OC)cc2)NC(=O)[C@H](Cc2ccc(O)cc2)NC(=O)[C@H](CC(N)=O)NC(=O)[C@H](Cc2cn(CC(=O)O)c3ccccc23)NC(=O)[C@H](C(C)C)NC(=O)[C@H](Cc2cccc(Cl)c2)N(C)C(=O)[C@H](C(C)C)NC(=O)[C@H](C)NC(=O)CSC[C@@H](C(N)=O)NC(=O)[C@H](Cc2ccc(O)cc2)N(C)C(=O)[C@H](Cc2ccccc2)NC(=O)[C@@H](CCCNC(=N)N)NC(=O)[C@H](CCCNC(=N)N)NC(=O)[C@H]([C@@H](C)CC)NC1=O [compound 306]
Kd: 1 to 100 nM

CC[C@H](C)[C@@H]1NC(=O)[C@H](Cc2ccc(O)cc2)NC(=O)[C@H](Cc2ccc(O)cc2)NC(=O)[C@H](CC(N)=O)NC(=O)[C@H](Cc2c[nH]c3ccccc23)NC(=O)[C@H](C(C)C)NC(=O)[C@H](Cc2cccc(Cl)c2)N(C)C(=O)[C@H](C(C)C)NC(=O)[C@H](C)NC(=O)CSC[C@@H](C(N)=O)NC(=O)[C@H](Cc2ccc(O)cc2)N(C)C(=O)[C@H](Cc2ccccc2)NC(=O)[C@H](CCCCN)NC(=O)[C@H](CC(=O)O)NC(=O)[C@H]([C@@H](C)CC)NC1=O [compound 307]
Kd: 1 to 100 nM

CC[C@H](C)[C@@H]1NC(=O)[C@H](Cc2ccc(OC)cc2)NC(=O)[C@H](Cc2ccc(O)cc2)NC(=O)[C@H](CC(N)=O)NC(=O)[C@H](Cc2c[nH]c3ccccc23)NC(=O)[C@H](C(C)C)NC(=O)[C@H](Cc2cccc(Cl)c2)N(C)C(=O)[C@H](C(C)C)NC(=O)[C@H](C)NC(=O)CSC[C@@H](C(=O)NCCOCCOCCOCCOCCC(N)=O)NC(=O)[C@H](Cc2ccc(O)cc2)N(C)C(=O)[C@H](Cc2ccccc2)NC(=O)[C@@H](CCCNC(=N)N)NC(=O)C(C)(C)NC(=O)[C@H]([C@@H](C)CC)NC1=O [compound 310] ({CH2CO}-AV[NMePhe(3-Cl)]VWNYY(Me)II[Aib][dR]F[NMeY]C[PEG4]-NH2; thioether N-15)
Kd: > 1000 nM

CC[C@H](C)[C@@H]1NC(=O)[C@H](Cc2ccc(OC)cc2)NC(=O)[C@H](Cc2ccc(O)cc2)NC(=O)[C@H](CC(N)=O)NC(=O)[C@H](Cc2c[nH]c3ccccc23)NC(=O)[C@H](C(C)C)NC(=O)[C@H](Cc2cccc(Cl)c2)N(C)C(=O)[C@H](C(C)C)NC(=O)[C@H](C)NC(=O)CSC[C@@H](C(=O)NCC(=O)NCC(=O)N[C@@H](CO)C(=O)NCC(=O)N[C@@H](CO)C(=O)NCC(=O)N[C@@H](CCCCN=[N+]=[N-])C(N)=O)NC(=O)[C@H](Cc2ccc(O)cc2)N(C)C(=O)[C@H](Cc2ccccc2)NC(=O)[C@@H](CCCCN)NC(=O)[C@H](CCCNC(=N)N)NC(=O)[C@H]([C@@H](C)CC)NC1=O [compound 313]
Kd: 1 to 100 nM

CC[C@H](C)[C@@H]1NC(=O)[C@H](Cc2ccc(OC)cc2)NC(=O)[C@H](Cc2ccc(O)cc2)NC(=O)[C@H](CC(N)=O)NC(=O)[C@H](Cc2c[nH]c3ccccc23)NC(=O)[C@H](C(C)C)NC(=O)[C@H](Cc2cccc(Cl)c2)N(C)C(=O)[C@H](C(C)C)NC(=O)[C@H](C)NC(=O)CSC[C@@H](C(=O)NCC(=O)NCC(=O)N[C@@H](CO)C(=O)NCC(=O)N[C@@H](CO)C(=O)NCC(=O)N[C@@H](CCCCN=[N+]=[N-])C(N)=O)NC(=O)[C@H](Cc2ccc(O)cc2)N(C)C(=O)[C@H](Cc2ccccc2)NC(=O)[C@@H](CCCNC(=N)N)NC(=O)[C@H](CCCCN)NC(=O)[C@H]([C@@H](C)CC)NC1=O [compound 314] ({CH2CO}-AV[NMePhe(3-Cl)]VWNYY(Me)IIK[dR]F[NMeY]CGGSGSG[Lys(N3)]-NH2; thioether N-15; C-terminus assumed)
Kd: 1 to 100 nM

Reference: patent US20230203098A1, “HUMAN TRANSFERRIN RECEPTOR BINDING PEPTIDE” (priority 2020, published 2023)
